Measurements: US20050287232A1, “Skin immune function controlling agents” (priority 1999, published 2005)
Values joined by “and” are separate entries in the source; they are usually repeats but may differ in a detail not shown here. Identical values can stand only once. Like-named read-outs stand apart in the source and are kept apart here.

Experiments:
adenylate cyclase [1] = conditions: olfactory cells of frogs; Sklar et al. 1986; cited from earlier work
adenylate cyclase [2] = conditions: olfactory cells of rats; Boekhoff et al. 1990; cited from earlier work
[3] = test system: Epidermal Langerhans' cells; experiment: Staining of epidermal Langerhans' cells (I-A antigen) after perfume exposure; assay type: in vivo, mouse
Description: Female C57 BL/6 mice (aged 7-9 weeks) were used. Each group of five animals were placed in a cage (225×335×140 mm) and kept in a chamber maintained at a temperature of 21-25° C. and a relative humidity of 40-70%. The inhalation of a perfume into the animals was carried out by placing a Petri dish having a diameter of 10 cm in the cage, putting therein a filter paper impregnated with the perfume, and covering the dish with wire netting. (A filter paper impregnated with no perfume was used for a control group.) This animal experiment followed the National Research Council Guidelines. Epidermal Langerhans' cells were stained according to the well-known method. In brief, an ear of a mouse was incubated in a 3.8% aqueous solution of ammonium thioisocyanate at 37° C. for 20 minutes to separate the epidermis from the corium. The epidermal sheet was fixed with acetone and incubated in the culture supernatant of mouse hybridoma M5/114.15.2 (American Tissue Type Collection, Rockville, Md., USA) so as to cause the secretion of anti-I-A IgG. Then, the anti-I-A IgG was combined with fluorescein isothiocyanate (FITC) (Sigma, USA)-labeled anti-mouse IgG antibody. Cells positive for the I-A antigen were observed under a confocal laser scanning microscope (MRC600; Bio Rad, USA) and analyzed. Samples were collected from each group of five mice. Three regions of each sample were analyzed by a blind test.

[4] = test system: contact hypersensitivity reaction; experiment: Contact hypersensitivity (CH) reaction induced and provoked with TNCB; perfume inhalation or topical application; assay type: in vivo, mice
Description: Female C57 BL/6 mice (aged 7-9 weeks) were used. Each group of five animals were placed in a cage (225×335×140 mm) and kept in a chamber maintained at a temperature of 21-25° C. and a relative humidity of 40-70%. The inhalation of a perfume into the animals was carried out by placing a Petri dish having a diameter of 10 cm in the cage, putting therein a filter paper impregnated with the perfume, and covering the dish with wire netting. (A filter paper impregnated with no perfume was used for a control group.) This animal experiment followed the National Research Council Guidelines. […] After 5 days (on experimental day 6), a contact hypersensitivity reaction was provoked by applying 5 μl of a 1% acetone solution of the aforesaid antigen to both sides of the right ear of each animal. The contact hypersensitivity (hereinafter referred to as CH) reaction was evaluated by measuring the thickness of the swollen left and right ears on day 7 with a micrometer and calculating the difference between the measured values. In order to examine the effect of perfume inhalation at the time of sensitization, a Petri dish containing a filter paper impregnated with the aforesaid perfume was placed in the cage over a period of time extending from day 0 to day 2. In order to examine the effect of perfume inhalation at the time of immunity provocation, the aforesaid Petri dish was placed in the cage over a period of time extending from day 5 to day 7. In order to examine the effect of the direct application of a perfume to the skin, 50 μl of 0.1% […] or diluent (50% corn oil in acetone) was applied to a region to be sensitized, and the aforesaid antigen was applied thereto after 6 hours. The long-term effect was tested by applying 50 μl of 1% perfume or diluent every day over a period of time extending from day 0 to day 2.

[5] = test system: Langerhans' cells in the epidermis; experiment: Staining of Langerhans' cells after stress imposition with perfume inhalation; assay type: in vivo, mice; conditions: DMMB at the time of stress imposition, FIG. 5
Description: Epidermal Langerhans' cells were stained according to the well-known method. In brief, an ear of a mouse was incubated in a 3.8% aqueous solution of ammonium thioisocyanate at 37° C. for 20 minutes to separate the epidermis from the corium. The epidermal sheet was fixed with acetone and incubated in the culture supernatant of mouse hybridoma M5/114.15.2 (American Tissue Type Collection, Rockville, Md., USA) so as to cause the secretion of anti-I-A IgG. Then, the anti-I-A IgG was combined with fluorescein isothiocyanate (FITC) (Sigma, USA)-labeled anti-mouse IgG antibody. Cells positive for the I-A antigen were observed under a confocal laser scanning microscope (MRC600; Bio Rad, USA) and analyzed. Samples were collected from each group of five mice. Three regions of each sample were analyzed by a blind test.
Female C57 BL/6 mice (aged 7-9 weeks) (purchased from Charles River Japan) were used. Each group of five animals were placed in a cage (225×335×140 mm) and kept in a chamber maintained at a temperature of 21-25° C. and a relative humidity of 40-70%. The inhalation of a perfume into the animals was carried out by placing a Petri dish having a diameter of 10 cm in the cage, putting therein a filter paper impregnated with the perfume, and covering the dish with wire netting. […]

[6] = test system: contact hypersensitivity reaction; experiment: CH reaction under restraint stress with perfume inhalation; assay type: in vivo, mice; conditions: for Swelling: DMMB inhalation, individual animals, right ear minus left ear thickness; for Average (swelling): DMMB, average of 5 values of Table III (1), given there in × 0.01 mm
Description: Female C57 BL/6 mice (aged 7-9 weeks) (purchased from Charles River Japan) were used. Each group of five animals were placed in a cage (225×335×140 mm) and kept in a chamber maintained at a temperature of 21-25° C. and a relative humidity of 40-70%. The inhalation of a perfume into the animals was carried out by placing a Petri dish having a diameter of 10 cm in the cage, putting therein a filter paper impregnated with the perfume, and covering the dish with wire netting. (A filter paper impregnated with no perfume was used for a control group.) These animals were laid in a prone position and wrapped in a pliable fine-meshed wire net for 6 hours. This animal experiment gained the approval of the animal experimentation committee of our company following the National Research Council Guidelines.
Mice were sensitized by applying 2,4,6-trinitrochlorobenzene (TNCB) (10 μl of a 3% acetone solution) to the inner and outer surfaces of the left ear of each mouse. After 5 days, a CH reaction was provoked by applying TNCB (5 μl of a 1% acetone solution) to the inner and outer surfaces of the right ear of each mouse. After 24 hours, the swelling was evaluated by measuring the thicknesses of both ears with a micrometer (manufactured by Mitsutoyo) and subtracting the thickness of the left ear from that of the right ear. The exposure of the animals to a perfume was continued over a period of time extending from 24 hours before provocation to the measurement of the swelling. The restraint stress was imposed 24 hours before provocation and repeated immediately after provocation. This experiment was carried out by using the animals in groups of five and using 1,3-dimethoxy-5-methylbenzene (DMMB; purchased from Takasago International Inc.) as the perfume.
The values given in Table III, (1) are values obtained by subtracting the measured thickness of the left ear of each test animal from that of the right ear thereof.

[7] = Table I, after exposure to citralva, SD in parentheses
[8] = Table II, animals kept in the presence of citralva or lyral/lilial, SD in parentheses

## CC(C)=CCCC(C)=CC#N [citralva, 3,7-dimethyl-2,6-octadienenitrile]
Adenylate cyclase [1]
  adenylate cyclase activation: activates adenylate cyclase
Adenylate cyclase [2]
  adenylate cyclase activation: activates adenylate cyclase
[3]; [7]
  Area per cell: 172.0 (78.3) μm^2
  Intensity of I-A: 89.9 (2.9)
  Number of LC: 119.8 (15.0) per mm^2
  Number of dendrites: 4.40 (0.92)
[3]; Table II
  effect on Langerhans' cells, comparison of perfumes: more powerful effect than lyral/lilial
[3]; [8]
  Intensity of I-A: 84.9 (3.1)
  Number of dendrites: 2.56 (0.12)
[3]; after exposure to citralva, versus control (Table I)
  change in number of LC: significantly decreased
[3]; exposure to citralva, versus control
  change in area of each I-A-positive cell: significantly reduced
[4]; direct application to the skin, 50 μl of 0.1% or 1% perfume, FIG. 3
  influence of topical application on the CH reaction: neither citralva nor lyral/lilial exerts an influence on the CH reaction
[4]; inhalation, exposure for 2 days at the time of induction (day 0 to day 2), FIG. 1 B
  suppression of the induction of the CH reaction: about 20%
[4]; inhalation, exposure for 2 days at the time of provocation (day 5 to day 7), compared with controls, FIG. 1 A
  suppression of the provocation of the CH reaction: about 50%
[4]; perfume inhalation, FIG. 2
  effect on CH reaction, citralva compared with lyral/lilial: significantly more powerful than that of lyral/lilial
  effect on the provocation of a CH reaction: suppress the CH reaction

## COc1cc(C)cc(OC)c1 [DMMB, 1,3-dimethoxy-5-methylbenzene]
[5]; compared with group without stress imposition
  number of Langerhans' cells: of the same order
[5]; compared with stress imposition alone
  number of Langerhans' cells: significantly increased
[6]; Restrained
  Swelling: 17 × 0.01 mm (2×) and 18 × 0.01 mm and 15 × 0.01 mm and 14 × 0.01 mm
  Average (swelling): 16.2
[6]; Unrestrained
  Swelling: 17 × 0.01 mm (2×) and 16 × 0.01 mm (2×) and 13 × 0.01 mm
  Average (swelling): 15.38
[6]; animal group having undergone DMMB inhalation, Table III, FIG. 4
  suppression of the skin immune reaction by stress: not observed
